Columns and labels:
[1] = tested on: C. difficile (VA17) spores; assay: Effect of addition of dilute peracetic acid on sporicidal activity of acidified ethanol; type: cell-based, Clostridium difficile; conditions: peracetic acid alone at 450, 650 and 1500 ppm, 3 minute dwell time
Procedure: (§1) The effect of addition of peracetic acid on activity of acidified ethanol against C. difficile (VA17) and B. subtilis was tested at room temperature (about 22° C.). The pH of specified test solutions was adjusted to 2.5 or 1.5 with hydrochloric acid (HCl). Ten microliters of spores (about 10^6 CFU) were inoculated into one mL of water (baseline), pH adjusted ethanol, peracetic acid at 450, 650, or 1500 ppm, pH adjusted peracetic acid at 450 and 650 ppm, ethanol plus peracetic acid at 450 and 650 ppm, and pH adjusted ethanol plus peracetic acid at 450 and 650 ppm. Spore suspensions were incubated at room temperature for three minutes. The reaction was quenched by neutralizing 1:1 in Dey-Engley neutralization broth (BD Biosciences). […] Experiments were performed in triplicate.
(§2) The effect of the addition of dilute PAA on the activity of acidified ethanol against C. difficile strain VA17 and B. subtilis was tested at 22° C. The pH of specified test solutions was adjusted to 2.5 or 1.5 with hydrochloric acid. Ten μL of spores (˜10^6 CFU) were inoculated into one mL of water (baseline), pH adjusted ethanol, PAA at 450, 650, or 1500 ppm, pH adjusted PAA at 450 and 650 ppm, ethanol plus PAA at 450 and 650 ppm, and pH adjusted ethanol plus PAA at 450 and 650 ppm and incubated for 3 minutes. The reaction was quenched by neutralizing 1:1 in Dey-Engley neutralization broth. […]

[2] = tested on: non-toxigenic C. difficile spores (ATCC 43593); assay: Reduction of C. difficile spores on hands of volunteers (fingerpad method, modified ASTM E 2276-10); type: in vivo, Clostridium difficile; conditions: Example 3; P>0.05
Procedure: A modification of the “Standard Test Method for Determining the Bacteria-Eliminating Effectiveness of Hygienic Handwash and Handrub Agents Using the Fingerpads of Adults” (American Society for Testing and Materials E 2276-10) was used to determine the efficacy of test solutions against non-toxigenic C. difficile spores. Each fingerpad of both hands were contaminated with 10 μL of a liquid inoculum containing 6 log10CFU of ATCC 43593 spores. The fingerpads were rubbed together until the inoculum was dry. Hand contamination levels were measured using the fingerpad sampling method. In brief, the fingerpads of each hand were rubbed with slight friction against the bottom of a 150 mm×15 mm Petri dish filled with 25 mL of Dey-Engley neutralizer (BD Biosciences, San Jose, Calif., USA) for 30 seconds. […] Log10 reductions were calculated by subtracting log10 CFU recovered after hand hygiene treatment from log10 CFU recovered from hands without treatment.
A crossover design was used such that each volunteer was exposed to three of the disinfection procedures. […] The person reading the plates to quantify spore counts was blinded to the test product that was used. […]
Similar experiments were conducted to assess the efficacy of dilute peracetic acid-containing solutions and acidified ethanol solutions at 42° C. […] Reductions in spore counts were then determined as described previously. […]

[3] = in-use concentrations of surface disinfectants (~1500 ppm); cited from earlier work
B. subtilis spores [4] = assay: Effect of addition of dilute peracetic acid on sporicidal activity of acidified ethanol; type: cell-based, Bacillus subtilis; conditions: peracetic acid alone at 450, 650 and 1500 ppm, 3 minute dwell time
Procedure: as §1, §2

[5] = tested on: Clostridium difficile spores (VA11, VA17, ATCC 43593); assay: Effect of altered pH on sporicidal activity of alcohol (spore suspension, log10CFU reduction); type: cell-based; conditions: 70% alcohol acidified to pH<2 (pH 1.5), 5 minutes, room temperature (FIG. 7A)
Procedure: (room temperature). B. subtilis, B. thuringiensis, and three strains of C. difficile spores were tested (described above in Spore Strains and Growth Conditions). The reaction was quenched by neutralizing 1:1 in Dey-Engley neutralization broth (BD Biosciences, San Jose, Calif., USA). Neutralized samples were serial diluted in deionized water, drop-plated, and cultured as described above in Spore Strains and Growth Conditions.
The reaction was quenched by neutralizing 1:1 in Dey-Engley neutralization broth (BD Biosciences, San Jose, Calif.). Neutralized samples were serially diluted in deionized water, drop-plated, and cultured as described previously. To increase the sensitivity of enumeration for samples with high levels of spore killing, 1 mL of the neutralized spore suspensions were spread-plated.

spores = assay: Other antibacterial compounds in combination with acidified ethanol (sporicidal activity); type: cell-based; conditions: compared with addition of peracetic acid
[6] = tested on: toxigenic C. difficile spores; set-up: species or system Clostridium difficile; conditions: applied as a liquid or wipe
Description: Reduction of toxigenic C. difficile spores inoculated on gloves of volunteers was compared after 30 or 60 second exposures to the sporicidal ethanol formulation, 70% ethanol, and 1:10 or 1:100 dilutions of household bleach; the solutions were applied both as a liquid solution and as a wipe. We also examined the efficacy of the sporicidal ethanol formulation for elimination of spore contamination from the gloves of healthcare personnel interacting with C. difficile infection (CDI) patients or their environment. To determine the potential for the disinfectants to damage clothing, the solutions were applied to pieces of colored cloth.

B. subtilis spores [7] = conditions: 70% ethanol, no pH alteration, 80° C., 60 minutes
Procedure: (§3) To determine the effect of elevated temperature on the sporicidal efficacy of ethanol, ten microliters of spores (˜10^6 CFU) were incubated in one mL of 70% ethanol or deionized water at about 22° C. (room temperature), 55° C. or 80° C. The pH was not altered for these experiments. B. subtilis, B. thuringiensis, and VA11 and VA17 C. difficile spores were tested (described above in Spore Strains and Growth Conditions). After 0, 5, 10, 20, 30 and 60 minutes of incubation at the appropriate temperature, aliquots of each spore suspension were serial diluted in deionized water, drop-plated, and cultured as described above in Spore Strains and Growth Conditions. Log10CFU reduction of spores was determined by calculating the difference in log10CFU recovered from baseline (spores incubated in water) and experimental groups (spores incubated in ethanol).

B. thuringiensis spores [8] = conditions: 70% ethanol, no pH alteration, 80° C., 60 minutes
Procedure: as §3

[9] = tested on: C. difficile spores (strains VA11 and VA17); conditions: 70% ethanol, no pH alteration
Procedure: as §3

B. subtilis spores [10] = conditions: room temperature, 1, 5, 10 minutes
Procedure: (§4) To assess whether acidified ethanol truly kills spores or only renders them incapable of germination, recovery of killed spores was assessed by incubation in lysozyme or dodecylamine which bypass germinant receptors. To assess whether acidified ethanol kills spores through alteration in the permeability of the dormant spores' inner membrane barrier, we evaluated whether spore killing occurs in parallel with dipicolinic acid (DPA) release. C. difficile (VA17), B. thuringiensis and B. subtilis spores were suspended in water, water altered to pH 1.5, 70% ethanol, 70% ethanol altered to pH 1.5, 3.0 or 3.0 with increased ionic strength, and 1 mM dodecylamine (induces DPA release in spores of several species). After 1, 5, and 10 minutes of incubation at room temperature (about 22° C.), DPA release was assessed as previously described. […] Fluorescence was measured using a plate reader (SpectraMaxM2, Bucher Biotec, Basel, Switzerland) with the following settings: time resolved fluorescence (delay 50 μs, interval 1200 μs) at an excitation wavelength of 272 nm, emission wavelength of 545 nm, and 5 endpoint readings per sample at 22° C. To determine percent DPA release, relative fluorescence units (RFU) of test solutions were compared to the RFU of total spore DPA content (supernatant of 10^7 CFU spores suspended in water boiled for 30 minutes) as previously described.

B. thuringiensis spores [11] = conditions: room temperature, 1, 5, 10 minutes
Procedure: as §4

[12] = tested on: C. difficile (VA17) spores; assay: Dipicolinic acid (DPA) release, terbium fluorescence; type: cell-based, Clostridium difficile; conditions: room temperature, within 10 minutes; compared to water, 70% ethanol and pH 1.5 water
Procedure: as §4

## CC(=O)OO [peracetic acid]
[1]
  Reduction of C. difficile spores: in a dose-dependent fashion
[2]
  Reduction in C. difficile spores on hands compared with soap and water hand wash: not significantly different
[3]
  Skin irritation: does not cause skin irritation
B. subtilis spores [4]
  Reduction of B. subtilis spores: in a dose-dependent fashion

## CCCO [1-propanol]
[5]
  Sporicidal activity against C. difficile spores on acidification of the alcohol: induced sporicidal activity

## II [iodine]
spores
  Enhancement of sporicidal activity on addition to acidified ethanol: did not result in similar enhancement of sporicidal activity

## [Cu] [copper]
spores
  Enhancement of sporicidal activity on addition to acidified ethanol: did not result in similar enhancement of sporicidal activity

## CCO [70% ethanol, ethanol]
[6]
  Reduction in spores on gloves: < 1 log
B. subtilis spores [7]
  Log10CFU reduction of B. subtilis spores: > 4 log10CFU
B. thuringiensis spores [8]
  Log10CFU reduction of B. thuringiensis spores: > 5 log10CFU
[9]; 55° C., 60 minutes
  Log10CFU reduction of C. difficile spores: 1 log10CFU
[9]; 80° C., 10 minutes
  Detectable C. difficile spores: no C. difficile spores were detectable
B. subtilis spores [10]
  DPA release from B. subtilis spores: did not
B. thuringiensis spores [11]
  DPA release from B. thuringiensis spores: low levels of baseline DPA release
[12]
  DPA release from C. difficile spores: low levels of baseline DPA release

## [O][Cl+][O-] [chlorine dioxide]
spores
  Enhancement of sporicidal activity on addition to acidified ethanol: did not result in similar enhancement of sporicidal activity

## CC(C)O [2-propanol]
[5]
  Sporicidal activity against C. difficile spores on acidification of the alcohol: induced sporicidal activity

## OCl [sodium hypochlorite]
spores
  Enhancement of sporicidal activity on addition to acidified ethanol: did not result in similar enhancement of sporicidal activity

Reference: patent publication US20170265463A1, “SPORICIDAL COMPOSITION” (CASE WESTERN RESERVE UNIVERSITY, priority 2016, published 2017)
